Assay results reported in patent publication US20250115598A1 (Anaxis Pharma Pty Ltd, priority 2021, published 2025).

Assays:
endogenous MLKL in MDF = endogenous MLKL in MDF (Mus musculus (Mouse), UniProt Q9D2Y4); test: Degradation assay: endogenous MLKL in MDF (western blot); conditions: MDF cells, 24 h incubation with compound, MLKL adjusted for loading with GAPDH, normalized to DMSO only control, read-out: Degradation of endogenous MLKL in MDF (DC50 cell-based assay)
Summary of the method: (§1)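 MDF (seeded the day before) or U937 cells were treated 24 h at 37 °C, 10% CO2 with compound at 10, 2, 0.4, 0.08 and 0.016 μM final. Endogenous MLKL was quantified by western blot (anti-MLKL 3H1), normalized to GAPDH. Percent degradation was taken relative to DMSO control.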

endogenous MLKL in U937 = endogenous MLKL in U937 (Homo sapiens (Human), UniProt Q8NB16); test: Degradation assay: endogenous MLKL in U937 (western blot); conditions: U937, 24 h incubation, read-out: Degradation of endogenous MLKL in U937 (DC50 cell-based assay)
endogenous MLKL in U937, sequence (Q8NB16 whole entry): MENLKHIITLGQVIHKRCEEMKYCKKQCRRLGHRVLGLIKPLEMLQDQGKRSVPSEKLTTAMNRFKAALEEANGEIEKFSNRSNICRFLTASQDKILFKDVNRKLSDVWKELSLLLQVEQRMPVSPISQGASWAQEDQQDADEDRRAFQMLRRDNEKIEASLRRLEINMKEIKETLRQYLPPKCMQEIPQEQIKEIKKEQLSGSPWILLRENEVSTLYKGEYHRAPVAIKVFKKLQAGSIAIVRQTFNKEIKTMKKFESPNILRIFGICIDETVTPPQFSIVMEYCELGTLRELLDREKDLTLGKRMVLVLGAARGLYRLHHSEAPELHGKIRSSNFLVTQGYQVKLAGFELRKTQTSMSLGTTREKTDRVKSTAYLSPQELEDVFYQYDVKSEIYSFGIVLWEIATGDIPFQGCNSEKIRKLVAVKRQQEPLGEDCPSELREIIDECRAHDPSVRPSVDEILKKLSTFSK
Summary of the method: as §1

[1] = tested on: Immortalised Mouse Dermal Fibroblasts (MDFs); test: Cellular assay: inhibition of TSI induced necroptosis, CellTitre-Glo viability; conditions: Mus musculus, Fibroblast; MDF, 3 hours TSI cocktail, Table 27; read-out: Inhibition of TSI-induced necroptosis (IC50 cell-based assay) in MDF
Summary of the method: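 Immortalised mouse dermal fibroblasts (2200 cells/well) pretreated 30 min with compound, 10-point 1:3 series from 36 μM, 0.3% DMSO. Then 3 h at 37° C. with TNF (100 ng/ml), Smac mimetic (500 nM) and IDN-6556 (10 μM). CellTiter-Glo luminescence normalised to DMSO (100%) and DMSO+TSI (0%); IC50 from 4-parameter logistic fit.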

human MLKL (full length) = human MLKL (full length) (Homo sapiens (Human), UniProt Q8NB16); test: KINOMEscan binding assay, human MLKL (full length); conditions: hMLKL, Table 25; read-out: MLKL (KD)
human MLKL (full length), sequence (Q8NB16 whole entry, the tested form may be a part): as the sequence (Q8NB16 whole entry) above
Summary of the method: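 Active-site competition binding: DNA-tagged kinase (T7 phage fusion from BL21-derived E. coli lysate, or HEK-293-expressed) captured on immobilized-ligand beads, with bound kinase in the eluate quantified by qPCR. Compounds ran as 11-point 3-fold dilutions, 1% DMSO, top 30,000 nM for most. Kd came from a Hill fit (slope −1).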

endogenous MLKL in MDF, sequence (Q9D2Y4 whole entry): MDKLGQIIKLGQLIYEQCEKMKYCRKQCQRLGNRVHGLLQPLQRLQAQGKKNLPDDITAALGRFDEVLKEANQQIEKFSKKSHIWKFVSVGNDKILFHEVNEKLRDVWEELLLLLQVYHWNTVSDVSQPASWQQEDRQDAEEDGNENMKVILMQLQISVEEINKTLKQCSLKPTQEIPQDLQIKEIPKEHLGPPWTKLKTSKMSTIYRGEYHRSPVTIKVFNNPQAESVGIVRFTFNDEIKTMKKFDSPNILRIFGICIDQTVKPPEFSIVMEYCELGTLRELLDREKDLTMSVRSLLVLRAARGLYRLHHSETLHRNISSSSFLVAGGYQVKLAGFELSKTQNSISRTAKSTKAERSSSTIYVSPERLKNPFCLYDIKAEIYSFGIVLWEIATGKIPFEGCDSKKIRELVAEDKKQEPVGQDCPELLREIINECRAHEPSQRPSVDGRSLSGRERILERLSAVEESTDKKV

SMILES	DC50 (endogenous MLKL in MDF)	DC50 (endogenous MLKL in U937)	Kd (human MLKL (full length))	IC50 [1]
C[C@H](Oc1cc(-c2nn(C)c3c(C#CC(=O)N[C@H]4C[C@H](Nc5cccc6c5C(=O)N(C5CCC(=O)NC5=O)C6=O)C4)cnc(N)c23)ccc1NS(=O)(=O)C(F)F)c1ccc(F)cc1 (stereo partly drawn) [Compound 1109, 3-{4-amino-3-[4-(difluoromethanesulfonamido)-3-[(1S)-1-(4-fluorophenyl)ethoxy]phenyl]-1-methyl-1H-pyrazolo[4,3-c]pyridin-7-yl}-N-[(trans)-3-{[2-(2,6-dioxopiperidin-3-yl)-1,3-dioxo-2,3-dihydro-1H-isoindol-4-yl]amino}cyclobutyl]prop-2-ynamide]	< 1 µM	< 1 µM	< 0.01 µM	1 to 10 µM
Cn1nc(-c2ccc(NS(=O)(=O)C(F)F)c(F)c2)c2c(N)ncc(-c3cnn(C4CCN(C(=O)CCC5CCN(c6cccc7c6C(=O)N(C6CCC(=O)NC6=O)C7=O)CC5)CC4)c3)c21 (stereo not shown) [Compound 1113, N-[4-(4-amino-7-{1-[1-(3-{1-[2-(2,6-dioxopiperidin-3-yl)-1,3-dioxo-2,3-dihydro-1H-isoindol-4-yl]piperidin-4-yl}propanoyl)piperidin-4-yl]-1H-pyrazol-4-yl}-1-methyl-1H-pyrazolo[4,3-c]pyridin-3-yl}-2-fluorophenyl]-1,1-difluoromethanesulfonamide]	< 1 µM	< 1 µM	< 0.01 µM	1 to 10 µM
C[C@H](Oc1cc(-c2nn(C)c3c(-c4cnn(C5CCC(C(=O)N6CCN(c7cccc8c7C(=O)N(C7CCC(=O)NC7=O)C8=O)CC6)N(C)C5)c4)cnc(N)c23)ccc1NS(=O)(=O)C(F)F)c1ccc(F)cc1 (stereo partly drawn) [Compound 1121, N-(4-{4-amino-7-[1-(6-{4-[2-(2,6-dioxopiperidin-3-yl)-1,3-dioxo-2,3-dihydro-1H-isoindol-4-yl]piperazine-1-carbonyl}-1-methylpiperidin-3-yl)-1H-pyrazol-4-yl]-1-methyl-1H-pyrazolo[4,3-c]pyridin-3-yl}-2-[(1S)-1-(4-fluorophenyl)ethoxy]phenyl)-1,1-difluoromethanesulfonamide]	< 1 µM	< 1 µM	< 0.01 µM	< 1 µM
C[C@H](Oc1cc(-c2nn(C)c3c(-c4cnn(C5CCN(C(=O)C6CCC(c7ccc8c(c7)C(=O)N(C7CCC(=O)NC7=O)C8=O)CC6)CC5)c4)cnc(N)c23)ccc1NS(=O)(=O)C(F)F)c1ccc(F)cc1 (stereo partly drawn) [Compound 1126, N-(4-{4-amino-7-[1-(1-{4-[2-(2,6-dioxopiperidin-3-yl)-1,3-dioxo-2,3-dihydro-1H-isoindol-5-yl]cyclohexanecarbonyl}piperidin-4-yl)-1H-pyrazol-4-yl]-1-methyl-1H-pyrazolo[4,3-c]pyridin-3-yl}-2-[(1S)-1-(4-fluorophenyl)ethoxy]phenyl)-1,1-difluoromethanesulfonamide]	< 1 µM	< 1 µM	< 0.01 µM	< 1 µM
C[C@H](Oc1cc(-c2nn(C)c3c(-c4cnn(C5CCC(C(=O)N6CCC(c7cccc8c7C(=O)N(C7CCC(=O)NC7=O)C8=O)CC6)CC5)c4)cnc(N)c23)ccc1NS(=O)(=O)C(F)F)c1ccc(F)cc1 (stereo partly shown) [Compound 1127]	< 1 µM	< 1 µM	0.01 to 1 µM	< 1 µM
Cn1nc(-c2ccc(NS(=O)(=O)C(F)F)c(F)c2)c2c(N)ncc(-c3cnn(C4CCN(C(=O)N5CCN(c6cccc7c6C(=O)N(C6CCC(=O)NC6=O)C7=O)CC5)CC4)c3)c21 (stereo not shown) [Compound 1131, N-(4-{4-amino-7-[1-(1-{4-[2-(2,6-dioxopiperidin-3-yl)-1,3-dioxo-2,3-dihydro-1H-isoindol-4-yl]piperazine-1-carbonyl}piperidin-4-yl)-1H-pyrazol-4-yl]-1-methyl-1H-pyrazolo[4,3-c]pyridin-3-yl}-2-fluorophenyl)-1,1-difluoromethanesulfonamide]	< 1 µM	< 1 µM	< 0.01 µM	1 to 10 µM

The next lines start with results.

DC50 (endogenous MLKL in MDF)	DC50 (endogenous MLKL in U937)	Kd (human MLKL (full length))	SMILES	IC50 [1]
< 1 µM	< 1 µM	< 0.01 µM	C[C@H](Oc1cc(-c2nn(C)c3c(-c4cnn(C5CCN(C(=O)CC(=O)N6CCN(c7cccc8c7C(=O)N(C7CCC(=O)NC7=O)C8=O)CC6)CC5)c4)cnc(N)c23)ccc1NS(=O)(=O)C(F)F)c1ccc(F)cc1 (stereo partly drawn) [Compound 1098, N-[4-(4-amino-7-{1-[1-(3-{4-[2-(2,6-dioxopiperidin-3-yl)-1,3-dioxo-2,3-dihydro-1H-isoindol-4-yl]piperazin-1-yl}-3-oxopropanoyl)piperidin-4-yl]-1H-pyrazol-4-yl}-1-methyl-1H-pyrazolo[4,3-c]pyridin-3-yl)-2-[(1S)-1-(4-fluorophenyl)ethoxy]phenyl]-1,1-difluoromethanesulfonamide]	1 to 10 µM
1 to 10 µM	< 1 µM	< 0.01 µM	C[C@H](Oc1cc(-c2nn(C)c3c(-c4cnn(C5CCN(CCCN6CCN(C(=O)COc7cccc8c7C(=O)N(C7CCC(=O)NC7=O)C8=O)CC6)CC5)c4)cnc(N)c23)ccc1NS(=O)(=O)C(F)F)c1ccc(F)cc1 (stereo partly drawn) [Compound 1099, N-(4-{4-amino-7-[1-(1-{3-[4-(2-{[2-(2,6-dioxopiperidin-3-yl)-1,3-dioxo-2,3-dihydro-1H-isoindol-4-yl]oxy}acetyl)piperazin-1-yl]propyl}piperidin-4-yl)-1H-pyrazol-4-yl]-1-methyl-1H-pyrazolo[4,3-c]pyridin-3-yl}-2-[(1S)-1-(4-fluorophenyl)ethoxy]phenyl)-1,1-difluoromethanesulfonamide]	1 to 10 µM
< 1 µM	1 to 10 µM	< 0.01 µM	C[C@H](Oc1cc(-c2nn(C)c3c(-c4cnn(C5CCN(C[C@H]6C[C@H](Nc7cccc8c7C(=O)N(C7CCC(=O)NC7=O)C8=O)C6)CC5)c4)cnc(N)c23)ccc1NS(=O)(=O)C(F)F)c1ccc(F)cc1 (stereo partly drawn) [Compound 1108, N-(4-{4-amino-1-methyl-7-[1-(1-{[(trans)-3-{[2-(2,6-dioxopiperidin-3-yl)-1,3-dioxo-2,3-dihydro-1H-isoindol-4-yl]amino}cyclobutyl]methyl}piperidin-4-yl)-1H-pyrazol-4-yl]-1H-pyrazolo[4,3-c]pyridin-3-yl}-2-[(1S)-1-(4-fluorophenyl)ethoxy]phenyl)-1,1-difluoromethane-sulfonamide]	< 1 µM
< 1 µM	< 1 µM	0.01 to 1 µM	C[C@H](Oc1cc(-c2nn(C)c3c(-c4cnn(C5CCN(Cc6ccc(CNc7cccc8c7C(=O)N(C7CCC(=O)NC7=O)C8=O)cc6)CC5)c4)cnc(N)c23)ccc1NS(=O)(=O)C(F)F)c1ccc(F)cc1 (stereo partly drawn) [Compound 1115, N-(4-{4-amino-7-[1-(1-{[4-({[2-(2,6-dioxopiperidin-3-yl)-1,3-dioxo-2,3-dihydro-1H-isoindol-4-yl]amino}methyl)phenyl]methyl}piperidin-4-yl)-1H-pyrazol-4-yl]-1-methyl-1H-pyrazolo[4,3-c]pyridin-3-yl}-2-[(1S)-1-(4-fluorophenyl)ethoxy]phenyl)-1,1-difluoromethanesulfonamide]	< 1 µM
1 to 10 µM	< 1 µM	< 0.01 µM	Cn1nc(-c2ccc(NS(=O)(=O)C(F)F)c(F)c2)c2c(N)ncc(-c3cnn(C4CCN(Cc5cccc(CNc6cccc7c6C(=O)N(C6CCC(=O)NC6=O)C7=O)c5)CC4)c3)c21 (stereo not shown) [Compound 1122, N-(4-{4-amino-7-[1-(1-{[3-({[2-(2,6-dioxopiperidin-3-yl)-1,3-dioxo-2,3-dihydro-1H-isoindol-4-yl]amino}methyl)phenyl]methyl}piperidin-4-yl)-1H-pyrazol-4-yl]-1-methyl-1H-pyrazolo[4,3-c]pyridin-3-yl}-2-fluorophenyl)-1,1-difluoromethanesulfonamide]	1 to 10 µM
< 1 µM	< 1 µM	< 0.01 µM	C[C@H](Oc1cc(-c2nn(C)c3c(-c4cnn(C5CCN(CCc6ccc7c(c6)C(=O)N(C6CCC(=O)NC6=O)C7=O)CC5)c4)cnc(N)c23)ccc1NS(=O)(=O)C(F)F)c1ccc(F)cc1 (stereo partly drawn) [Compound 1123, N-(4-{4-amino-7-[1-(1-{2-[2-(2,6-dioxopiperidin-3-yl)-1,3-dioxo-2,3-dihydro-1H-isoindol-5-yl]ethyl}piperidin-4-yl)-1H-pyrazol-4-yl]-1-methyl-1H-pyrazolo[4,3-c]pyridin-3-yl}-2-[(1S)-1-(4-fluorophenyl)ethoxy]phenyl)-1,1-difluoromethanesulfonamide]	< 1 µM
< 1 µM	< 1 µM	0.01 to 1 µM	C[C@H](Oc1cc(-c2nn(C)c3c(-c4cnn(C5CCN(C(=O)C6CCC(c7cccc8c7C(=O)N(C7CCC(=O)NC7=O)C8=O)CC6)CC5)c4)cnc(N)c23)ccc1NS(=O)(=O)C(F)F)c1ccc(F)cc1 (stereo partly drawn) [Compound 1125, N-(4-{4-amino-7-[1-(1-{4-[2-(2,6-dioxopiperidin-3-yl)-1,3-dioxo-2,3-dihydro-1H-isoindol-4-yl]cyclohexane-carbonyl}piperidin-4-yl)-1H-pyrazol-4-yl]-1-methyl-1H-pyrazolo[4,3-c]pyridin-3-yl}-2-[(1S)-1-(4-fluorophenyl)ethoxy]phenyl)-1,1-difluoromethanesulfonamide]	< 1 µM
